Drawing on paper PMC2843614, “Protein engineering of conger eel galectins by tracing of molecular evolution using probable ancestral mutants” (BMC Evolutionary Biology, 2010), this text covers Kd for 6 compounds.

What all share (experiment): frontal affinity chromatography (FAC)
For assay [1], the target named is T1, Con-anc (probable ancestral form of congerins).
T1 construct: recombinant from plasmid pTV-Con-anc in Escherichia coli JM109; differs from ConI at 31 residues; purified by HCl-treated Sepharose 4B and HiTrap Q
In kind it is binding, synthetic construct. The note with it: labelled compound (pyridylaminated sugar). An excerpt: frontal affinity chromatography (FAC) on Con-anc (probable ancestral form of congerins)

The target in another assay is T2, congerin II (ConII) (Conger myriaster, UniProt Q9YIC2).
T2 construct: full length, 135 residues (natural form N-acetylated); proto-type galectin, dimer
T2 sequence (Q9YIC2 2-136): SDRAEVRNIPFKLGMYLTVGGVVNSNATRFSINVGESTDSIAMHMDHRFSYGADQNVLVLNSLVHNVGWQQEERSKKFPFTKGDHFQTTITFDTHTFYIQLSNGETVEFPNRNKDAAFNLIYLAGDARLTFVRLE
In kind it is binding. From the text: frontal affinity chromatography (FAC) on congerin II (ConII)

Another assay has as its target T3, congerin I (ConI) (Conger myriaster, UniProt P26788).
T3 construct: full length, 136 residues (natural form N-acetylated); proto-type galectin, dimer
In kind it is binding. From the text: frontal affinity chromatography (FAC) on congerin I (ConI)

Where [2] appears, read: labelled compound (pyridylaminated sugar).

Like-named read-outs stand apart in the source and are kept apart here.

T3 sequence (P26788 whole entry): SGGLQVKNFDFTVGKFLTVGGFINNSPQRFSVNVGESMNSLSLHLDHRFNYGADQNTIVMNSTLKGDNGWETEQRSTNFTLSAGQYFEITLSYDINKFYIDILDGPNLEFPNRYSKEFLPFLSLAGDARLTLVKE

On to GM3 (NeuGc) [compound 30], for which the Kd in assay [1] came out at 196 µM; at congerin II (ConII) (setting [2]) it was 66 µM.
Consider `CC(=O)N[C@H]1[C@H]([C@H](O)[C@H](O)CO)OC(O[C@H]2[C@@H](O)[C@@H](CO)O[C@@H](O[C@@H]([C@H](O)[C@@H](O)CNc3ccccn3)[C@H](O)CO)[C@@H]2O)(C(=O)O)C[C@@H]1O` (stereo partly drawn) [compound 29], for which the values for the Kd (in assay [1]; at congerin II (ConII) (setting [2])) were 242 µM and 51 µM, respectively.
On to A-heptasaccharide [compound 48], for which the Kd at congerin I (ConI) (setting [2]) came out at 17 µM; in assay [1], 56 µM; in assay [1] (read-out: Con-anc-N/C/L5 / Kd), 2.5 µM; on congerin II (ConII) (setting [2]), 42 µM.
Take `CC(=O)N[C@H]1[C@H](O[C@H]2[C@@H](O)[C@@H](CO)O[C@@H](O[C@@H]([C@H](O)[C@@H](O)CNc3ccccn3)[C@H](O)CO)[C@@H]2O)O[C@H](CO)[C@@H](O[C@@H]2O[C@H](CO)[C@H](O)[C@H](O)[C@H]2O)[C@@H]1O[C@@H]1O[C@@H](C)[C@@H](O)[C@@H](O)[C@@H]1O` [compound 45, LNFP-III]: the Kd on congerin I (ConI) stood at 13 µM; in assay [1], 171 µM; at congerin II (ConII), 122 µM.
For the compound `CC(=O)N[C@H]1[C@H](O[C@H]2[C@@H](O)[C@@H](CO)O[C@@H](O[C@@H]([C@H](O)[C@@H](O)CNc3ccccn3)[C@H](O)CO)[C@@H]2O)O[C@H](CO)[C@@H](O[C@@H]2O[C@@H](C)[C@@H](O)[C@@H](O)[C@@H]2O)[C@@H]1O[C@@H]1O[C@H](CO)[C@H](O)[C@H](O)[C@H]1O` [compound 44], the Kd at congerin I (ConI) worked out at 4.4 µM; in assay [1] it was 55 µM; in assay [1] (read-out: Con-anc-L5 / Kd), 3.9 µM; at congerin II (ConII), 24 µM.
Regarding `CC(=O)N[C@H]1[C@H](O[C@H]2[C@@H](O)[C@@H](CO)O[C@@H](O[C@@H]([C@H](O)[C@@H](O)CNc3ccccn3)[C@H](O)CO)[C@@H]2O)O[C@H](CO)[C@@H](O[C@@H]2O[C@@H](C)[C@@H](O)[C@@H](O)[C@@H]2O)[C@@H]1O[C@@H]1O[C@H](CO)[C@H](O)[C@H](O)[C@H]1O[C@@H]1O[C@@H](C)[C@@H](O)[C@@H](O)[C@@H]1O` [compound 46], the Kd stood at 9.4 µM at congerin I (ConI), 44 µM in assay [1] and 37 µM on congerin II (ConII).
